The results in this text go back to PubChem BioAssay (NCI).

Holding throughout (test): NCI anticancer screen, dose series, 48 h
In assay [1] the test system is A549 NSCLC.
The test system of assay [2] is HOP-62 NSCLC.
Assay [3] relates to SK-MEL-5 melanoma.
Assay [4] relates to DU-145 prostate.
Assay [5] deals with MDA-MB-435.
Assay [6] has as its system A498 renal.
Assay [7] deals with M14 melanoma.
The subject of assay [8] is OVCAR-5 ovarian.
Assay [9] relates to EKVX NSCLC.
The subject of assay [10] is NCI-H226 lung.
In assay [11] the test system is HCC-2998 colon.
Assay [12] has as its system SF-539 CNS.
In assay [13] the test system is MCF7 breast.
The test system of assay [14] is RXF 393 renal.
Assay [15] deals with SK-MEL-28 melanoma.
Assay [16] deals with CCRF-CEM leukemia.

The structures appear in SMILES notation.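 Cultured in 96-well plates, cells were exposed to test compound for 48 hours across five concentrations. TGI marks complete inhibition of growth.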

Turning to `Cn1c(=O)nc2n(CCO)ccnc-2c1=O`, the TGI in [1], in [2], in assay [3], in assay [4], in assay [5] and in assay [6] was over 100 µM each time. Also, the TGI in assay [7], in [8], in assay [9], in assay [10], in [11] and in assay [12] was over 100 µM throughout. In addition, the TGI in [13], in [14], in assay [15] and in [16] was over 100 µM each time.

Take `COc1ccc(-n2nnc3c(C#N)c(-c4ccccc4)c(C)n3c2=O)cc1`: the TGI is over 100 µM in [1]; over 100 µM in assay [2]; 48 µM in assay [3]; over 100 µM in [4]; over 100 µM in assay [5]; over 100 µM in assay [6]. Moreover, the TGI in assay [7], in [8], in assay [9], in assay [10], in assay [11] and in [12] was over 100 µM in each case. For the same molecule, the TGI was over 100 µM in [13], 93.8 µM in [14], over 100 µM in assay [15] and 58.5 µM in assay [16].

On to `COc1ccc(C2=NN(C(=O)c3ccccc3)C(O)(c3cc(F)c(Cl)cc3Cl)C2)cc1OC` (configuration not stated), for which the TGI in [1] was over 100 µM; in assay [2], 43 µM; in [3], over 100 µM; in [4] it was over 100 µM; in assay [5], over 100 µM; in [6], over 100 µM. Further, the TGI in [7], in [8], in assay [9], in assay [10], in assay [11] and in assay [12] was over 100 µM throughout. Further, the TGI in [13] is over 100 µM; in assay [14], 55.5 µM; in assay [15], over 100 µM; in assay [16], over 100 µM.

Take `Cc1[nH]c2ncn3ncnc3c2c1Cc1ccccc1`: the TGI in [1], in assay [2], in assay [3], in assay [4], in assay [5] and in assay [6] was over 100 µM throughout. The TGI in [7], in assay [8], in assay [9], in assay [10], in [11] and in assay [12] was over 100 µM each time. For the same molecule, the TGI in [13], in [14], in assay [15] and in assay [16] was over 100 µM throughout.

As for `C[C@@H](C(=O)O)c1ccc(-c2ccccc2)c(F)c1`, the TGI in assay [1], in assay [2], in assay [3], in assay [4], in [5] and in assay [6] was over 100 µM throughout. Besides, the TGI in assay [7], in assay [8], in [9], in assay [10], in [11] and in [12] was over 100 µM in each case. Also, the TGI in [13], in assay [14], in [15] and in assay [16] was over 100 µM in each case.

Turning to `Cc1nc2c(=O)[nH]c3ccccc3c2o1`, the TGI in assay [1], in assay [2], in assay [3], in [4], in assay [5] and in assay [6] was over 100 µM each time. For the same molecule, the TGI in assay [7], in assay [8], in [9], in [10], in assay [11] and in assay [12] was over 100 µM in each case. The TGI in assay [13], in [14], in assay [15] and in assay [16] was over 100 µM throughout.

With `O=C(CC(=O)N(C(=O)c1ccccc1)c1ccc(Cl)cc1)N/N=C\c1ccccc1O`, the TGI in [1] was over 100 µM; in assay [2] it was 89.2 µM; in assay [3], over 100 µM; in assay [4], over 100 µM; in assay [5], over 100 µM; in assay [6] it was over 100 µM. The TGI in assay [7], in [8], in assay [9], in [10], in assay [11] and in [12] was over 100 µM in each case. Moreover, the TGI in assay [13], in assay [14], in [15] and in assay [16] was over 100 µM in each case.

For `C=C[C@@]1(C)CC2CC[C@]3(C)C(C)=CC(=O)CC3[C@]2(C)CC1O` (some centres not stated), the TGI in [1], in assay [2], in [3], in assay [4], in [5] and in assay [6] was over 100 µM in each case. For the same molecule, the TGI in assay [7], in assay [8], in assay [9], in [10], in [11] and in [12] was over 100 µM throughout. Moreover, the TGI in [13], in assay [14], in [15] and in assay [16] was over 100 µM throughout.

Regarding `CSC(=NC1CC(n2cc(C)c(=O)[nH]c2=O)OC1CO)NC#N` (configuration not stated), the TGI in assay [1], in [2], in [3], in assay [4], in assay [5] and in assay [6] was over 100 µM each time. For the same molecule, the TGI in [7], in assay [8], in assay [9], in assay [10], in assay [11] and in [12] was over 100 µM each time. The TGI in [13], in [14], in assay [15] and in assay [16] was over 100 µM each time.

Consider `O=c1c2c(sc3ccccc13)NCN(CCc1ccccc1)C2`, for which the TGI in assay [1] was over 100 µM; in [2] it was over 100 µM; in assay [3], 29 µM; in [4], over 100 µM; in assay [5], over 100 µM; in assay [6], over 100 µM. In addition, the TGI in assay [7] was 84.4 µM; in assay [8], over 100 µM; in assay [9] it was over 100 µM; in assay [10], over 100 µM; in assay [11] it was 56.9 µM; in assay [12] it was over 100 µM. Also, the TGI in assay [13], in assay [14], in assay [15] and in assay [16] was over 100 µM each time.

Regarding `COc1ccc(-c2nc(N)c(C#N)c3c2CCSc2ccc(C)cc2-3)cc1OC`, the TGI in assay [1] is over 100 µM; in [2] it was over 100 µM; in assay [3], 25.2 µM; in assay [4], over 67.2 µM; in assay [5], over 100 µM; in [6] it was over 63.2 µM. Further, the TGI in assay [7] is over 100 µM; in assay [8], over 100 µM; in assay [9], over 85.3 µM; in [10] it was over 70.9 µM; in [11], over 57.8 µM; in [12] it was 58.9 µM. Moreover, the TGI in assay [13] was 63.5 µM; in assay [14], over 100 µM; in [15], over 81.8 µM; in assay [16], 23.6 µM.

`CN(C)CCSC(=Nc1ccccc1)N1C=COC=C1`: the TGI in assay [1] was over 100 µM; in assay [2], over 100 µM; in [3], 34 µM; in [4] it was over 100 µM; in assay [5] it was 34.8 µM; in assay [6], over 100 µM. For the same molecule, the TGI in assay [7] is 36.2 µM; in assay [8] it was over 100 µM; in assay [9], over 100 µM; in [10] it was over 75.6 µM; in assay [11] it was 50.5 µM; in assay [12] it was over 89 µM. Also, the TGI in assay [13] is 33.9 µM; in [14], 72.8 µM; in assay [15] it was 40.4 µM; in [16], over 100 µM.

As for `COc1ccc(N2C(=O)CSC2c2cc3cc(Br)ccc3nc2Cl)cc1` (configuration not stated), the TGI in [1], in assay [2], in [3], in assay [4], in [5] and in [6] was over 50 µM each time. In addition, the TGI in assay [7], in [8], in assay [9], in assay [10], in [11] and in [12] was over 50 µM throughout. Besides, the TGI in [13], in [14], in [15] and in [16] was over 50 µM in each case.

Consider `C[C@@H]1CCC2[C@@H](C)[C@H](O[C@H]3O[C@@H]4O[C@@]5(C)CCC6[C@H](C)CCC([C@H]3C)[C@]64OO5)O[C@@H]3O[C@@]4(C)CCC1[C@@]23OO4` (some centres not stated), for which the TGI in [1] was determined as 32.3 µM; in [2], 25.5 µM; in [3], 12.8 µM; in [4], 19.5 µM; in assay [5], 21.6 µM; in [6], 9.51 µM. The TGI in assay [7] came to 20.6 µM; in [8], 10.3 µM; in assay [9], 18.7 µM; in assay [10] it was 34.1 µM; in assay [11] it was 14.5 µM; in [12], 21.9 µM. Further, the TGI in assay [13] was found to be 25.3 µM; in [14], 21.4 µM; in assay [15], 27.3 µM; in assay [16] it was 18.3 µM.

Take `CC(=O)OCc1cccc(O)c1C(=O)CCC=C(C)C`: the TGI in assay [1], in assay [2], in assay [3], in [4], in assay [5] and in [6] was over 100 µM each time. For the same molecule, the TGI in assay [7], in assay [8], in [9], in assay [10], in [11] and in assay [12] was over 100 µM throughout. For the same molecule, the TGI in assay [13], in [14], in assay [15] and in assay [16] was over 100 µM each time.

With `COC(=O)C1=C(C(=O)OC)SC(=C2c3ccsc3-c3sccc32)S1`, the TGI in [1] is over 100 µM; in assay [2], 55.1 µM; in assay [3], over 100 µM; in assay [4] it was over 100 µM; in [5], over 100 µM; in assay [6], 71.4 µM. The TGI in assay [7], in assay [8], in assay [9], in assay [10], in assay [11] and in assay [12] was over 100 µM each time. The TGI in assay [13] is over 100 µM; in assay [14] it was 41.6 µM; in assay [15], over 100 µM; in [16] it was over 100 µM.

Regarding `CCOC(=O)N1CC2(C(=O)OC)C=CC1C(C(=O)OC)C2` (configuration not stated), the TGI in [1], in assay [2], in [3], in assay [4], in assay [5] and in assay [6] was over 100 µM throughout. Further, the TGI in assay [7], in assay [8], in [9], in assay [10], in assay [11] and in [12] was over 100 µM each time. For the same molecule, the TGI in [13], in assay [14], in assay [15] and in assay [16] was over 100 µM each time.
